Assay results published in patent publication US20230416196A1, “DIMER OF BIGUANIDINES AND THEIR THERAPEUTIC USES” (INSTITUT CURIE, priority 2020, published 2023).

What was measured:
[1] = tested on: MCF7, FC1242 and DU-145 cells; assay: Cell viability in epithelial versus mesenchymal state (TGF-β or OSM induced EMT); assay type: cell-based, human, mouse; settings: EMT induced with TGF-β or OSM; FIG. 7
Procedure: Cell viability assay (IC50). Cell viability assay was carried out by plating 1000 cells/well in 96-well plates. Cells were treated for 72 h in a range between to 25 nM and […] using serial dilutions. The inventors followed the manufacturer's protocol. In brief, CellTiter-Blue® reagent (G8081, Promega) was added after 72 h treatment and cells were incubated for 3 h before recording fluorescence intensities (λex. 560/20 nm; λem. 590/10 nm) using a Perkin Elmer Wallac 1420 Victor2 Microplate Reader.
Cell culture. MCF7 (ATCC) cells, DU-145 (ATCC) cells and FC1245 cells were cultured in Dulbecco's Modified Eagle Medium GlutaMAX (DMEM, ThermoFisher Scientific, 61965059) supplemented with 10% Fetal Bovine Serum (FBS, Gibco, 10270-106) and Penicillin-Streptomycin mixture (BioWhittaker/Lonza, DE17-602E) unless stated otherwise. Primary lung circulating tumor cells (Celprogen, 36107-34CTC, Lot 219411) were grown using stem cell complete media (Celprogen, M36102-29PS) until the third passage. Circulating cancer cells were grown in stem cell ECM T75-flasks (Celprogen, E36102-29-T75) and ECM 6-well plates (Celprogen, E36102-29-6Well). […]

[2] = tested on: mitochondrial NAD^+ and NADH in aMDM; assay: Mass spectrometry-based metabolomics of mitochondrial NAD+ and NADH in aMDM; assay type: cell-based, human; settings: treatment during macrophage activation; FIG. 11D
Procedure: Mitochondrial extraction. Mitochondria were isolated using the Qproteome Mitochondria Isolation Kit (Qiagen, 37612) according to the manufacturer's protocol. In brief, cells were washed and centrifuged at 500× g for 10 min and the supernatant was removed. Cells were then washed with a solution of 0.9% NaCl (Sigma-Aldrich, 57653-250G) and resuspended in ice-cold Lysis Buffer and incubated at 4° C. for 10 min. The lysate was then centrifuged at 1000×g for 10 min at 4° C. and the supernatant carefully removed. Subsequently, the cell pellet was resuspended in disruption buffer. Complete cell disruption was obtained by using a dounce homogenizer (mitochondria for ICP-MS) or a blunt-ended needle and a syringe (mitochondria for metabolomics). The lysate was then centrifuged at 1000× g for 10 min at 4° C. and the supernatant transferred to a clean tube. The supernatant was then centrifuged at 6000× g for 10 min at 4° C. to obtain pellets containing mitochondria.
Quantitative metabolomics. In a typical experiment 1.5 million cells were used for total extracts and 15 million cells for mitochondrial extracts. Cells were harvested and the supernatant removed to generate the corresponding cell pellets. […] Peak detection and integration of the analytes were performed using the Agilent Mass Hunter quantitative software (B.07.01). […]

For `N=C(N)NC(=N)NCCCCCCCCCCCCNC(=N)NC(=N)N` [LCC-12, lipophilic copper clamp C12], the “IC50-values in mesenchymal state compared to epithelial counterpart” value [1] was “lower IC50-values in cells in the mesenchymal state compared to the epithelial counterpart” and the “mitochondrial NAD^+ and NADH levels” value [2] was “decrease of both mitochondrial NAD^+ and NADH”.
